# Data published in BindingDB's records for PubMed 36970145 (n/a, 2023).
# Assay: Inhibition of human 20S immuno proteosome beta5i subunit using Suc-LLVY-AMC as substrate measured after 10 mins by fluorescence based analysis
row,SMILES,IC50
1,COc1ccccc1NC(=O)Nc1ccc2n(c1=O)C[C@@H]1C[C@H]2CN(C(=O)c2ccc3ccccc3c2)C1,5.6 µM
2,O=C(Nc1ccccc1)Nc1ccc2n(c1=O)C[C@@H]1C[C@H]2CN(C(=O)c2ccc3ccccc3c2)C1,31.6 µM
3,O=C(Nc1ccc(Cl)cc1)Nc1ccc2n(c1=O)C[C@@H]1C[C@H]2CN(C(=O)c2ccc3ccccc3c2)C1,8.44 µM
4,N#Cc1cccc(NC(=O)Nc2ccc3n(c2=O)C[C@@H]2C[C@H]3CN(C(=O)c3ccc4ccccc4c3)C2)c1,22.1 µM
